Source: patent publication US9815796B2 (Merck Sharp & Dohme Corp., priority 2013, dated 2017)
Read-outs that look alike come from different tables or passages of the source.

Target: Rhesus PDE2A3 (Macaca mulatta, UniProt B3VTJ2)
Test: PDE2 fluorescence polarization (IMAP FP) inhibition assay, rhesus enzyme
Type: biochemical, rhesus macaque
Description: The activity of the compounds in accordance with the present invention as PDE2 inhibitors may be readily determined using a fluorescence polarization (FP) methodology (Huang, W., et al., J. Biomol Screen, 2002, 7: 215).
In a typical experiment the PDE2 inhibitory activity of the compounds of the present invention was determined in accordance with the following experimental method. Rhesus PDE2A3 was amplified from rhesus macaque brain cDNA (Biochain Institute, Hayward, Calif.) using primers based on human PDE2A sequence (accession NM_002599.3) where the forward primer containing a Kozak consensus was 5′-[…]-3′ and the reverse primer was 5′-[…]-3′. Amplification with Easy-A High-Fidelity PCR cloning enzyme (Stratagene, La Jolla, Calif.) was 95° C. for 2 minutes followed by thirty three cycles of 95° C. for 40 seconds, 52° C. for 30 seconds, and 72° C. for 2 minutes 48 seconds. Final extension was 72° C. for 7 minutes. The PCR product was TA cloned into pcDNA3.3-TOPO (Invitrogen, Carlsbad, Calif.) according to standard protocol. A consensus sequence was developed from multiple clones and then deposited into GenBank (EU812167). AD293 cells (Stratagene, La Jolla, Calif.) with 70-80% confluency were transiently transfected with rhesus PDE2A3/pcDNA3.3-TOPO using Lipofectamine 2000 according to manufacturer specifications (Invitrogen, Carlsbad, Calif.). Cells were harvested 48 hours post-transfection and lysed by sonication (setting 3, 10×5 sec pulses) in a buffer containing 20 mM HEPES pH 7.4, 1 mM EDTA and Complete Protease Inhibitor Cocktail Tablets (Roche, Indianapolis, Ind.). Lysate was collected by centrifugation at 75,000×g for 20 minutes at 4° C. and supernatant utilized for evaluation of PDE2 activity. The fluorescence polarization assay for cyclic nucleotide phosphodiesterases was performed using an IMAP® FP kit supplied by Molecular Devices, Sunnyvale, Calif. (product # R8139). […] Assays were performed at room temperature in 384-well microtiter plates with an incubation volume of 20.2 μL. Solutions of test compounds were prepared in DMSO and serially diluted with DMSO to yield 8 μL of each of 10 solutions differing by 3-fold in concentration, at 32 serial dilutions per plate. […] 0% of inhibition is determined by using DMSO (1% final concentrations).
A Labcyte Echo 555 (Labcyte, Sunnyvale, Calif.) is used to dispense 200 nL from each well of the titration plate to the 384 well assay plate. Ten microliters of a solution of enzyme (1/2000 final dilution from aliquots; sufficient to produce 20% substrate conversion) was added to the assay plate. Next 10 uL of a separate solution of the substrate FAM-labeled cAMP (50 nM final concentration product # R7506 from Molecular Devices) and the activator cGMP (1 uM final concentration), prepared in the assay buffer (10 mM Tris HCl, pH 7.2, 10 mM MgCl2, 0.05% NaN3 0.01% Tween-20, and 1 mM DTT) was added to the assay plate and shaken to mix. The reaction is allowed to proceed at room temperature for 60 minutes. A binding solution is then made from the kit components, comprised of 80% Solution A, 20% Solution B and binding reagent at a volume of 1/600 the total binding solution. The enzymatic reaction is stopped by addition of 60 μL of the binding solution to each well of the assay plates and the plates are sealed and shaken for 30 seconds. The plate was incubated at room temperature for at least one hour prior to determining the fluorescence polarization (FP). The parallel and perpendicular fluorescence of each well of the plate was measured using a Tecan Genios Pro plate reader (Tecan, Switzerland) or Perkin Elmer EnVision™ plate reader (Waltham, Mass.). Fluorescence polarization (mP) was calculated from the parallel (S) and perpendicular (P) fluorescence of each sample well and the analogous values for the median control well, containing only substrate (So and Po), using the following equation: Polarization (mP)=1000*(S/So−P/Po)/(S/So+P/Po).

[1] = Rhesus PDE2, Lab A, read-out: Rhesus PDE2 Ki (nM) - Lab A

Chain of Rhesus PDE2A3 (B3VTJ2 1-941): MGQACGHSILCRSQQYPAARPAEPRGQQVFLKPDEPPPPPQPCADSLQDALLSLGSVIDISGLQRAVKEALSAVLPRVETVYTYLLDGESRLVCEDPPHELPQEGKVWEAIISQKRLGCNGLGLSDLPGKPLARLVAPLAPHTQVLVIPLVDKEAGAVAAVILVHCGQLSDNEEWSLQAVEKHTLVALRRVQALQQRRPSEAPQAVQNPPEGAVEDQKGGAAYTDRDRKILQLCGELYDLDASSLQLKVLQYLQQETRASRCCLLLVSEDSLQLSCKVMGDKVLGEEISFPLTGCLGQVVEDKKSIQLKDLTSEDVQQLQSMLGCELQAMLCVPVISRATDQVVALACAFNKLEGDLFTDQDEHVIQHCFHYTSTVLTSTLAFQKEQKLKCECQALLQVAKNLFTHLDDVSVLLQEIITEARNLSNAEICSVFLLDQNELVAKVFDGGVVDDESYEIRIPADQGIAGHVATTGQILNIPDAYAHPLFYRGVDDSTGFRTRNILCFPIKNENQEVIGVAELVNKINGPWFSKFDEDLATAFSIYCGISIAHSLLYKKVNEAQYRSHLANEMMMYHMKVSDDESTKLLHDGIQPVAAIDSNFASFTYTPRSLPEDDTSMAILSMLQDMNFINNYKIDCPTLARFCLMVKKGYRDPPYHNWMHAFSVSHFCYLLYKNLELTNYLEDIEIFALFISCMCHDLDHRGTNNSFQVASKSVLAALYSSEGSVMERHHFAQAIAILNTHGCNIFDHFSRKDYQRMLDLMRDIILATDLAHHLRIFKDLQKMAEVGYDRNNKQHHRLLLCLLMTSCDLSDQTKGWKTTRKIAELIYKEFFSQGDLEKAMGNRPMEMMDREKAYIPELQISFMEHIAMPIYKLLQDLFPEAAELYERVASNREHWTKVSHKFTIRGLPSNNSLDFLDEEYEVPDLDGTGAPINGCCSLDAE

Compound	Ki [1] [nM]	Ki (Rhesus PDE2, Lab B, read-out: Rhesus PDE2 Ki (nM) - Lab B) [nM]
COc1ccc(C(NC(=O)c2cc(=O)[nH]c(C3CC3)n2)c2ccc(C(F)(F)F)cc2)cc1 (centres unmarked) [Example 205, 2-cyclopropyl-N-{(4-methoxyphenyl)[4-(trifluoromethyl)phenyl]methyl}-6-oxo-1,6-dihydropyrimidine-4-carboxamide]	694	
CN(Cc1cc(F)c(F)c(F)c1)C(=O)c1cc(=O)[nH]c(C2CC2)n1 [Example 206, 2-cyclopropyl-N-methyl-6-oxo-N-(3,4,5-trifluoromethyl)-1,6-dihydropyrimidine-4-carboxamide]	24300	
Cc1cc(C(F)(F)F)ccc1C(C)NC(=O)c1cc(=O)[nH]c(C2CC2)n1 (centres unmarked) [Example 208]	291	
C[C@H](c1ccc(C(F)(F)F)cc1)N(C)C(=O)c1cc(=O)[nH]c(C2CC2)n1 [Example 209]	17400	
CC(NC(=O)c1cc(=O)[nH]c(C2CC2)n1)c1ccccc1C(F)(F)F (centres unmarked) [Example 220, 2-cyclopropyl-6-oxo-N-{1-[2-(trifluoromethyl)phenyl]ethyl}-1,6-dihydropyrimidine-4-carboxamide]	10700	
COc1cc(C(C)NC(=O)c2cc(=O)[nH]c(C3CC3)n2)ccc1C(F)(F)F (centres unmarked) [Example 226, 2-cyclopropyl-N-{1-[3-methoxy-4-(trifluoromethyl)phenyl]ethyl}-6-oxo-1,6-dihydropyrimidine-4-carboxamide]	505	
O=C(NCc1ccc(C(F)(F)F)cc1Cl)c1cc(=O)[nH]c(C2CC2)n1 [Example 229, N-[2-chloro-4-(trifluoromethyl)benzyl]-2-cyclopropyl-6-oxo-1,6-dihydropyrimidine-4-carboxamide]	864	
C[C@@H](NC(=O)c1cc(=O)[nH]c(C2CC2)n1)c1ccc(C(F)(F)F)c2ccccc12 [Example 235, 2-cyclopropyl-6-oxo-N-{(1R)-1-[4-(trifluoromethyl)naphthalen-1-yl]ethyl}-1,6-dihydropyrimidine-4-carboxamide]	274	
CC(NC(=O)c1cc(=O)[nH]c(C2CC2)n1)c1ccc(C(F)(F)F)cn1 (centres unmarked) [Example 238, 2-cyclopropyl-6-oxo-N-{1-[5-(trifluoromethyl)pyridin-2-yl]ethyl}-1,6-dihydropyrimidine-4-carboxamide]	683	
CC(C)(NC(=O)c1cc(=O)[nH]c(-c2ncccn2)n1)c1ccc(SC(F)(F)F)c(F)c1 [Example 241, N-(1-{3-fluoro-4-[(trifluoromethyl)sulfanyl]phenyl}-1-methylethyl)-6-oxo-1,6-dihydro-2,2′-bipyrimidine-4-carboxamide]	557	
Cc1nc(C(=O)NC(C)c2cccc(-c3ccc(F)cc3)c2)cc(=O)[nH]1 (centres unmarked) [Example 267, N-[1-(4′-fluorobiphenyl-3-yl)ethyl]-2-methyl-6-oxo-1,6-dihydropyrimidine-4-carboxamide]	8060	
CC(C)(NC(=O)c1cc(=O)[nH]c(-c2ncccn2)n1)c1ccc(OC(F)(F)F)cc1 [Example 289, N-{1-methyl-1-[4-(trifluoromethoxy)phenyl]ethyl}-6-oxo-1,6-dihydro-2,2′-bipyrimidine-4-carboxamide]	2320	
Cc1nc(C(=O)N[C@H](c2ccc(C(F)(F)F)cc2)C(C)C)cc(=O)[nH]1 [Example 315, 2-methyl-N-{(1S)-2-methyl-1-[4-(trifluoromethyl)phenyl]propyl}-6-oxo-1,6-dihydropyrimidine-4-carboxamide]	698	
COc1cc(-c2ccc([C@@H](C)NC(=O)c3cc(=O)[nH]c(C)n3)cc2)ccn1 [Example 317, (R)—N-(1-(4-(2-methoxypyridin-4-yl)phenyl)ethyl)-2-methyl-6-oxo-1,6-dihydropyrimidine-4-carboxamide]	1810	

Second part, the compound after the results:

Ki [1] [nM]	Ki (Rhesus PDE2, Lab B, read-out: Rhesus PDE2 Ki (nM) - Lab B) [nM]	Compound
2050		Cc1cc(C(F)(F)F)ccc1CNC(=O)c1cc(=O)[nH]c(-c2ccccc2)n1 [Example 180, N-[2-methyl-4-(trifluoromethyl)benzyl]-6-oxo-2-phenyl-1,6-dihydropyrimidine-4-carboxamide]
485		O=C(NCc1ccc(C(F)(F)F)cc1Cl)c1cc(=O)[nH]c(-c2ccccc2)n1 [Example 181, N-[2-chloro-4-(trifluoromethyl)benzyl]-6-oxo-2-phenyl-1,6-dihydropyrimidine-4-carboxamide]
1010		COc1cc(C(F)(F)F)ccc1[C@@H](C)NC(=O)c1cc(=O)[nH]c(-c2ccccc2)n1 [Example 188, N-{(1R)-1-[2-methoxy-4-(trifluoromethyl)phenyl]ethyl}-6-oxo-2-phenyl-1,6-dihydropyrimidine-4-carboxamide]
915		O=C(NC(c1ccccc1)c1ccc(C(F)(F)F)cc1)c1cc(=O)[nH]c(C2CC2)n1 (centres unmarked) [Example 196, 2-cyclopropyl-6-oxo-N-{phenyl[4-(trifluoromethyl)phenyl]methyl}-1,6-dihydropyrimidine-4-carboxamide]
4320		CC(NC(=O)c1cc(=O)[nH]c(C2CC2)n1)c1ncc(C(F)(F)F)cn1 (centres unmarked) [Example 203, 2-cyclopropyl-6-oxo-N-{1-[5-(trifluoromethyl)pyrimidin-2-yl]ethyl}-1,6-dihydropyrimidine-4-carboxamide]
967		COC(=O)c1ccc(C(C)(C)NC(=O)c2cc(=O)[nH]c(C3CC3)n2)cc1 [Example 215, methyl 4-(1-{[(2-cyclopropyl-6-oxo-1,6-dihydropyrimidin-4-yl)carbonyl]amino}-1-methylethyl)benzoate]
247		COc1ccc([C@@H](C)NC(=O)c2cc(=O)[nH]c(C3CC3)n2)cc1 [Example 216, 2-cyclopropyl-N-[(1R)-1-(4-methoxyphenyl)ethyl]-6-oxo-1,6-dihydropyrimidine-4-carboxamide]
681		O=C(NCc1ccc(C2CC2)cc1)c1cc(=O)[nH]c(C2CC2)n1 [Example 221, 2-cyclopropyl-N-(4-cyclopropylbenzyl)-6-oxo-1,6-dihydropyrimidine-4-carboxamide]
1020		COc1cc(C(F)(F)F)ccc1[C@H](C)NC(=O)c1cc(=O)[nH]c(C2CC2)n1 [Example 223, 2-cyclopropyl-N-{(1S)-1-[2-methoxy-4-(trifluoromethyl)phenyl]ethyl}-6-oxo-1,6-dihydropyrimidine-4-carboxamide]
1430		Cc1cc(C(F)(F)F)ccc1CNC(=O)c1cc(=O)[nH]c(C2CC2)n1 [Example 228, 2-cyclopropyl-N-[2-methyl-4-(trifluoromethyl)benzyl]-6-oxo-1,6-dihydropyrimidine-4-carboxamide]
3070		O=C(NCc1c(Cl)cc(C(F)(F)F)cc1Cl)c1cc(=O)[nH]c(C2CC2)n1 [Example 239, 2-cyclopropyl-N-[2,6-dichloro-4-(trifluoromethyl)benzyl]-6-oxo-1,6-dihydropyrimidine-4-carboxamide]
2960		Cc1nc(C(=O)N[C@H](C)c2cccc(C(F)(F)F)c2)cc(=O)[nH]1 [Example 271, 2-methyl-6-oxo-N-{(1R)-1-[3-(trifluoromethyl)phenyl]ethyl}-1,6-dihydropyrimidine-4-carboxamide]
51400		Cc1nc(C(=O)N[C@@H](C)c2cccc3ccccc23)cc(=O)[nH]1 [Example 302, 2-methyl-N-[(3S)-1-naphthalen-1-ylethyl]-6-oxo-1,6-dihydropyrimidine-4-carboxamide]
73	189	Cc1nc(C(=O)N[C@H](C)c2ccc(-c3ccc(C(F)(F)F)cc3)cc2)cc(=O)[nH]1 [Example 318, 2-methyl-6-oxo-N-{(1R)-1-[4′-(trifluoromethyl)biphenyl-4-yl]ethyl}-1,6-dihydropyrimidine-4-carboxamide]
